“Also recorded” adds a separate entry of the source.
Key:
Format in all cases: physicochemical
[1] = Effect of antioxidants on benzene levels in 10% w/v benzoyl peroxide formulations (headspace GC-MS); details: 10% w/v benzoyl peroxide plus antioxidant
Text: Agilent 7890B Gas Chromatography (GC) system equipped with 7697A headspace autosampler coupled with 5977B Mass Selective Detector (MS) was used for sample analysis, and a DB-Select 624 UI, 60 m×0.32 mm×1.8 μm GC column (Agilent Technology, Santa Clara, CA) was used to separate benzene from other compounds. Dimethyl sulfoxide (DMSO, GC Headspace Grade) was used for sample preparation (Thermo Fisher Scientific, Waltham, MA). All certified reference standards, solution, and buffer reagents including sodium citrate dihydrate, citric acid, tris, and glycerol were sourced from Sigma-Aldrich, St. Louis, MO.
For benzoyl peroxide stability studies in glycerol, benzoyl peroxide was prepared in a stock suspension of 20% w/v in glycerol and mixed 1:1 with 20% w/v suspensions or v/v solutions of antioxidants in glycerol. For pH experiments, the same stock suspension of benzoyl peroxide was mixed 1:1 with a 50% glycerol solution with 200 mM buffering agent (Citrate buffer pH 3.0, Tris Buffer pH 7.0, or Tris Buffer pH 9.0) for final 75% glycerol solution. The final volume of all reactions was 100 μL in GC headspace vials with 10% solution benzoyl peroxide (10 mg) and 10% antioxidant or 100 mM buffering agent. Vials were immediately crimp sealed for incubation. For analysis, 4.9 mL of DMSO was added to make up the final volume to approximate 5 mL, crimp sealed, and gently vortexed to mix.
Benzene standard was diluted in DMSO for an 11-point calibration ranging from 10 ng/vial to 100 μg/vial. The coefficient of determination R^2 were greater than 0.999. Five (5) mL of DMSO was used for negative control samples.
Benzoyl peroxide products in original packaging were incubated for up to one month at 25° C., 37° C., or 50° C. and sampled periodically. Benzoyl peroxide and products with antioxidant additions or buffering agent additions were prepared and incubated in crimp sealed GC headspace vials.
The method USP <467> Residual Solvents Procedure A was modified from flame ionization detection (FID) to mass spectrometry (MS) detection for benzene in benzoyl peroxide products. The gas chromatography (GC) methods were also modified to allow shorter run time and the method was validated for addition of up to 500 mg benzoyl peroxide product or […] glycerol. Identification of benzene was based on the retention time matching to certified reference standards and mass spectral m/z matching to benzene. Lower limit of detection (LLOD) was 10 ng (equivalent to 0.02 ppm in hand benzoyl peroxide products) and LLOQ was 25 μg. The measurement uncertainty was determined to be 20%.
10% w/v benzoyl peroxide formulations were prepared. […]

[2] = Effect of solvents on benzene levels in 10% w/v benzoyl peroxide formulations (headspace GC-MS); details: 10% benzoyl peroxide in the solvent; 37° C. for 10 days; compared to glycerol or NMP; FIG. 8
Experimental: (§1) The method USP <467> Residual Solvents Procedure A was modified from flame ionization detection (FID) to mass spectrometry (MS) detection for benzene in benzoyl peroxide products. […] Identification of benzene was based on the retention time matching to certified reference standards and mass spectral m/z matching to benzene.
10% w/v benzoyl peroxide formulations were prepared. […] Benzene levels in each formulation were tested at various time points according to the protocols described in Example 1.

[3] = Benzene levels formed by crystalline benzoyl peroxide on incubation (headspace GC-MS); details: incubated at 50° C. for up to 12 days; FIG. 11
Text: as §1

[4] = Effect of antioxidants on benzene levels in FDA-approved benzoyl peroxide drug products (headspace GC-MS); details: antioxidant added to commercial drug products; 50° C. for 2 days; FIG. 5
Text: as §1

[5] = 37° C. for up to two weeks, FIG. 3
[6] = 50° C. for up to two weeks, FIG. 4

| SMILES | levels of benzene formed in the formulations [1, 5] | levels of benzene formed in the formulations [1, 6] | levels of benzene formed in the formulations [2] | levels of benzene formed in two FDA-approved drug products with added antioxidant [4] | further results |
| --- | --- | --- | --- | --- | --- |
| CC(=O)Oc1c(C)c(C)c2c(c1C)CCC(C)(CCC[C@H](C)CCC[C@H](C)CCCC(C)C)O2 (stereo partly drawn) [vitamin E acetate] | reduced the levels of benzene | reduced the levels of benzene |  |  |  |
| C[S+](C)[O-] [DMSO, dimethylsulfoxide] |  |  | most dramatic reduction in, or complete prevention of, benzene levels |  |  |
| O=C(OOC(=O)c1ccccc1)c1ccccc1 [crystalline benzoyl peroxide, benzoyl peroxide] |  |  |  |  | levels of benzene formed [3]: may be protected from forming benzene levels |
| Cc1cc(C(C)(C)C)c(O)c(C(C)(C)C)c1 [BHT, butylated hydroxytoluene] | reduced the levels of benzene; also recorded: most dramatic reduction | reduced the levels of benzene; also recorded: most dramatic reduction |  | reduce the degradation of benzoyl peroxide to benzene |  |
| CC(C)(C)c1cc(O)ccc1O [TBHQ, tert-butyl hydroquinone] |  |  |  | reduce the degradation of benzoyl peroxide to benzene |  |
| O [water] |  |  | most dramatic reduction in, or complete prevention of, benzene levels |  |  |
